The values below come from a flash point compilation (Sun et al. 2020).

In the case of `CCCCCCCCCCCCCl` [1-chlorododecane], the flash point was 113.00 °C.
In the case of `Clc1cccc2ccccc12` [1-chloronaphthalene], the flash point is 121.00 °C.
Molecule `C1=CC(c2ccc(C3CC=CCC3)cc2)CCC1` (centres undefined) [1-cyclohex-2-en-1-yl-4-cyclohex-3-en-1-ylbenzene] displayed a flash point of 157.00 °C.
Take `C=COCC(C)C` [1-ethenoxy-2-methylpropane]: the flash point was -9.00 °C.
Then `C=Cc1ccccc1C` [1-ethenyl-2-methylbenzene], with 60.00 °C; and `C=CN1CCCC1=O` [1-ethenylpyrrolidin-2-one], with 93.00 °C.
For `Cc1cccc(F)c1` [1-fluoro-3-methylbenzene] the value was 9.00 °C; for `Cc1ccc(F)cc1` [1-fluoro-4-methylbenzene], 41.00 °C; for `CC(C)c1cc(OO)cc(C(C)C)c1` [1-hydroperoxy-3,5-di(propan-2-yl)benzene], 79.00 °C.
`COCCOCCOC` [1-methoxy-2-(2-methoxyethoxy)ethane]: the flash point was determined as 67.00 °C.
The molecule `COc1ccccc1[N+](=O)[O-]` [1-methoxy-2-nitrobenzene] gave a flash point of 142.00 °C.
For `C/C=C/c1ccc(OC)cc1` [1-methoxy-4-[(E)-prop-1-enyl]benzene] the value was 91.00 °C; for `C=CCc1ccc(OC)cc1` [1-methoxy-4-prop-2-enylbenzene], 81.00 °C.
With `COCC(C)OC(C)=O` (centres undefined) [1-methoxypropan-2-yl acetate], the flash point came to 46.00 °C.
Then `Cc1ccccc1[N+](=O)[O-]` [1-methyl-2-nitrobenzene], with 106.00 °C; and `Cc1cccc([N+](=O)[O-])c1` [1-methyl-3-nitrobenzene], with 106.00 °C.
Then `O=[N+]([O-])c1ccccc1C(F)(F)F` [1-nitro-2-(trifluoromethyl)benzene], with 96.00 °C; and `O=[N+]([O-])c1ccc(-c2ccccc2)cc1` [1-nitro-4-phenylbenzene], with 143.00 °C.
For `O=[N+]([O-])c1cccc2ccccc12` [1-nitronaphthalene], the flash point came out at 164.00 °C.
In turn, `CCC[N+](=O)[O-]` [1-nitropropane] came in with a flash point of 34.00 °C.
In turn, `O=NN1CCCC1` [1-nitrosopyrrolidine] had a flash point of 83.00 °C.
For `CCCCCSCCCCC` [1-pentylsulfanylpentane] the value was 85.00 °C; for `CC(=O)c1ccccc1` [1-phenylethanone], 82.00 °C; for `CCCOCC(C)O` (centres undefined) [1-propoxypropan-2-ol], 48.00 °C.
Then `c1nc[nH]n1` [1H-1,2,4-triazole], with 170.00 °C; and `C1=Cc2ccccc2C1` [1H-indene], with 78.00 °C; and `O=CC(Cl)(Cl)Cl` [2,2,2-trichloroacetaldehyde], with 75.00 °C.
On to `CC1=CC(C)(C)Nc2ccccc21` [2,2,4-trimethyl-1H-quinoline], for which the flash point worked out at 101.00 °C.
For the molecule `CC(C)CC(C)(C)C` [2,2,4-trimethylpentane], the flash point was -12.00 °C.
The molecule `CC(C)CCC(C)(C)C` [2,2,5-trimethylhexane] registered a flash point of 31.00 °C.
`OCC(CO)(CO)CO` [2,2-bis(hydroxymethyl)propane-1,3-diol] gave a flash point of 240.00 °C.
Regarding `O=C(O)C(Br)Br` [2,2-dibromoacetic acid], the flash point was determined as 113.00 °C.
For `COC(F)(F)C(Cl)Cl` [2,2-dichloro-1,1-difluoro-1-methoxyethane] the value was 63.00 °C; for `CC(C)(C)CO` [2,2-dimethylpropan-1-ol], 37.00 °C.
In the case of `CC(C)(C)C(=O)O` [2,2-dimethylpropanoic acid], the flash point turned out to be 64.00 °C.
`C=C(Cl)C(Cl)CCl` (centres undefined) [2,3,4-trichlorobut-1-ene] had a flash point of 63.00 °C.
Molecule `Oc1ccc(Cl)c(Cl)c1Cl` [2,3,4-trichlorophenol] returned a flash point of 62.00 °C.
In turn, `Oc1c(Cl)ccc(Cl)c1Cl` [2,3,6-trichlorophenol] returned a flash point of 79.00 °C.
In turn, `O=C(O)C(O)C(O)C(=O)O` (centres undefined) [2,3-dihydroxybutanedioic acid] gave a flash point of 210.00 °C.
On to `Cc1cccc(N)c1C` [2,3-dimethylaniline], for which the flash point was 97.00 °C.
`CC(C)=CC(C)(C)C` [2,4,4-trimethylpent-2-ene] gave a flash point of 2.00 °C.
`CC(C)(C)CC(C)(C)S` [2,4,4-trimethylpentane-2-thiol] displayed a flash point of 46.00 °C.
`Oc1cc(Cl)c(Cl)cc1Cl` [2,4,5-trichlorophenol] came in with a flash point of 133.00 °C.
`CC1OC(C)OC(C)OC(C)O1` (centres undefined) [2,4,6,8-tetramethyl-1,3,5,7-tetraoxocane] came in with a flash point of 36.00 °C.
The molecule `Oc1c(Cl)cc(Cl)cc1Cl` [2,4,6-trichlorophenol] gave a flash point of 99.00 °C.
As to `CC1OC(C)OC(C)O1` (centres undefined) [2,4,6-trimethyl-1,3,5-trioxane], the flash point amounted to 36.00 °C.
In the case of `CC(C)(C)c1cc(C(C)(C)C)c(O)c(C(C)(C)C)c1` [2,4,6-tritert-butylphenol], the flash point came to 130.00 °C.
For `Nc1ccc(Cl)cc1Cl` [2,4-dichloroaniline] the value was 115.00 °C; for `Oc1ccc(Cl)cc1Cl` [2,4-dichlorophenol], 114.00 °C.
Then `Nc1ccc(F)cc1F` [2,4-difluoroaniline], with 63.00 °C; and `Cc1ccc(N=C=O)cc1N=C=O` [2,4-diisocyanato-1-methylbenzene], with 132.00 °C.
For `Cc1ccc([N+](=O)[O-])c(C)c1` [2,4-dimethyl-1-nitrobenzene], the flash point is 107.00 °C.
Turning to `Nc1ccc([N+](=O)[O-])cc1[N+](=O)[O-]` [2,4-dinitroaniline], the flash point is 224.00 °C.
Then `CC(C)(C)OOC(C)(C)CCC(C)(C)OOC(C)(C)C` [2,5-bis(tert-butylperoxy)-2,5-dimethylhexane], with 85.00 °C; and `O=S1(=O)CC=CC1` [2,5-dihydrothiophene 1,1-dioxide], with 113.00 °C; and `CC1COC(C)CO1` (centres undefined) [2,5-dimethyl-1,4-dioxane], with 24.00 °C.
In turn, `Cc1ccc(C)c(N)c1` [2,5-dimethylaniline] registered a flash point of 94.00 °C.
Turning to `CC1=CCC2CC1C2(C)C` (centres undefined) [2,6,6-trimethylbicyclo[3.1.1]hept-2-ene], the flash point came out at 33.00 °C.
Then `Cc1cccc(C)c1N` [2,6-dimethylaniline], with 91.00 °C; and `CC(C)=CC(=O)C=C(C)C` [2,6-dimethylhepta-2,5-dien-4-one], with 85.00 °C; and `CC(C)CC(O)CC(C)C` [2,6-dimethylheptan-4-ol], with 74.00 °C.
`CC1CNCC(C)O1` (centres undefined) [2,6-dimethylmorpholine] showed a flash point of 44.00 °C.
Then `Cc1cccc(C)c1O` [2,6-dimethylphenol], with 74.00 °C; and `Cc1cc(C(C)(C)C)c(O)c(C(C)(C)C)c1` [2,6-ditert-butyl-4-methylphenol], with 127.00 °C.
As for `c1ccc2sc(SSc3nc4ccccc4s3)nc2c1` [2-(1,3-benzothiazol-2-yldisulfanyl)-1,3-benzothiazole], the flash point is 270.00 °C.
Then `NCCOCCO` [2-(2-aminoethoxy)ethanol], with 127.00 °C.
Then `NCCNCCO` [2-(2-aminoethylamino)ethanol], with 102.00 °C; and `O=C(OCCOCCOC(=O)c1ccccc1)c1ccccc1` [2-(2-benzoyloxyethoxy)ethyl benzoate], with 232.00 °C.
`CCCCOCCOCCO` [2-(2-butoxyethoxy)ethanol] registered a flash point of 78.00 °C.
Then `CCCCOCCOCCOC(C)=O` [2-(2-butoxyethoxy)ethyl acetate], with 116.00 °C; and `CCOCCOCCO` [2-(2-ethoxyethoxy)ethanol], with 96.00 °C; and `CCCCC(CC)COCC1CO1` (centres undefined) [2-(2-ethylhexoxymethyl)oxirane], with 97.00 °C.
For `COCCOCCO` [2-(2-methoxyethoxy)ethanol] the value was 93.00 °C; for `COC(C)COC(C)CO` (centres undefined) [2-(2-methoxypropoxy)propan-1-ol], 74.00 °C.
On to `COC(C)COC(C)COC(C)=O` (centres undefined) [2-(2-methoxypropoxy)propyl acetate], for which the flash point was determined as 86.00 °C.
As for `C=C(C)C(=O)OCCOC(=O)C(=C)C` [2-(2-methylprop-2-enoyloxy)ethyl 2-methylprop-2-enoate], the flash point was determined as 101.00 °C.
With `C=CC(=O)OCCOCCOC(=O)C=C` [2-(2-prop-2-enoyloxyethoxy)ethyl prop-2-enoate], the flash point worked out at 78.00 °C.
As for `Cc1ccc(C(C)(C)O)cc1` [2-(4-methylphenyl)propan-2-ol], the flash point stood at 96.00 °C.
`BrCC1CO1` (centres undefined) [2-(bromomethyl)oxirane]: the flash point is 56.00 °C.
In turn, `ClCC1CO1` (centres undefined) [2-(chloromethyl)oxirane] had a flash point of 34.00 °C.
As to `C=CC(=O)OCCN(C)C` [2-(dimethylamino)ethyl prop-2-enoate], the flash point turned out to be 29.00 °C.
For `FCC1CO1` (centres undefined) [2-(fluoromethyl)oxirane] the value was 4.00 °C; for `C=CCOCC1CO1` (centres undefined) [2-(prop-2-enoxymethyl)oxirane], 57.00 °C.
`CCCCOC(=O)c1ccccc1C(=O)OCc1ccccc1` [2-O-benzyl 1-O-butyl benzene-1,2-dicarboxylate]: the flash point stood at 199.00 °C.
